Data on 5 molecules can be found in US20260337153A1, “IONIZABLE AMINE LIPIDS” (Intellia Therapeutics, Inc., priority 2023, published 2026).

Common to all, as to assay type: physicochemical
Series [1] is described as follows: LNP encapsulation efficiency of RNA (Ribogreen fluorescence assay). To be noted: LNP with 50% ionizable lipid, 38% cholesterol, 9% DSPC, 3% C13 Ether (LNP #1, Compound 53: 3% PEG2K-DMG instead); sgRNA:mRNA 1:2. In a few lines:
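RiboGreen fluorescence (ex 488/em 525 nm) measured total RNA in 1×TE with 0.2% Triton X-100 and free RNA in 1×TE alone, against standard curves of the starting RNA; encapsulation = (total − free)/total. Total RNA alternatively quantified after Triton disruption by RP-IP HPLC, UV 260 nm.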

A short description of series [2]: pKa of unformulated amine lipid by TNS fluorescence. To be noted: read-out: pKa. Put shortly: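 Unformulated amine lipid was diluted from ethanol stock to approx. 100 μM in 0.1 M sodium phosphate buffers spanning pH 4.5–9.0 with TNS. Fluorescence read at ex 321/em 448 nm; normalized data fitted sigmoidally to give pKa.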
Series [3] is described as follows: LNP average particle size and polydispersity by dynamic light scattering. To be noted: LNP with 50% ionizable lipid, 38% cholesterol, 9% DSPC, 3% C13 Ether (LNP #1, Compound 53: 3% PEG2K-DMG instead); sgRNA:mRNA 1:2. Put shortly:
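Z-average (intensity-based) and number-mean diameters plus PDI measured by DLS on LNP samples diluted in PBS. LNPs carried sgRNA and Cas9 mRNA at 1:2 w/w, with lipids at 50% ionizable lipid, 38% cholesterol, 9% DSPC and 3% PEG lipid (PEG2K-DMG, C13 Ether or C14 Ether).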

Take `CCCCCCCCC(CCCCCCCC)OC(=O)CCCCCC(=O)OCC(COC(=O)CCCCCC(=O)OC(CCCCCCCC)CCCCCCCC)COC(=O)OCCCN1CCCC1` [Compound 64, 7,7′-di(heptadecan-9-yl) O′1,O1-(2-((((3-(pyrrolidin-1-yl)propoxy)carbonyl)oxy)methyl)propane-1,3-diyl) di(heptanedioate)]: the “% E (encapsulation efficiency)” value in series [1] stood at 99%. In addition, the pKa in series [2] came to 6.4. Also, in series [3], the “Number mean (average particle size)” value is 52 nm, the “PDI (polydispersity index)” value turned out to be 0.01 and the “Z-avg (average particle size)” value is reported as 63 nm.

On to `CCCCCCCCC(CCCCCCCC)OC(=O)CCCCCCC(=O)OCC(COC(=O)CCCCCCC(=O)OC(CCCCCCCC)CCCCCCCC)COC(=O)OCCCN1CCCC1` [Compound 65, 8,8′-di(heptadecan-9-yl) O′1,O1-(2-((((3-(pyrrolidin-1-yl)propoxy)carbonyl)oxy)methyl)propane-1,3-diyl) di(octanedioate)], for which, in series [1], the “% E (encapsulation efficiency)” value is given as 99%. Besides, in series [2], the pKa came to 6.4. In series [3], the “Number mean (average particle size)” value worked out at 62 nm, the “PDI (polydispersity index)” value was 0.01 and the “Z-avg (average particle size)” value is on record as 74 nm.

Consider `CCCCCCCCC(CCCCCCCC)OC(=O)CCCCCCC(=O)OCC(CC)(COC(=O)CCCCCCC(=O)OC(CCCCCCCC)CCCCCCCC)COC(=O)NCCN(CC)CC` [Compound 66, O′1,O1-(2-((((2-(diethylamino)ethyl)carbamoyl)oxy)methyl)-2-ethylpropane-1,3-diyl) 8,8′-di(heptadecan-9-yl) di(octanedioate)], for which the “% E (encapsulation efficiency)” value in series [1] is reported as 99%. Also, the pKa in series [2] was 6.1. In series [3], the “Number mean (average particle size)” value is reported as 64 nm, the “PDI (polydispersity index)” value worked out at 0.01 and the “Z-avg (average particle size)” value amounted to 78 nm.

For `CCCCCCCCC(CCCCCCCC)OC(=O)CCCCCCC(=O)OCC(CC)(COC(=O)CCCCCCC(=O)OC(CCCCCCCC)CCCCCCCC)COC(=O)OCCCN1CCCC1` [Compound 67, O′1,O1-(2-ethyl-2-((((3-(pyrrolidin-1-yl)propoxy)carbonyl)oxy)methyl)propane-1,3-diyl) 8,8′-di(heptadecan-9-yl) di(octanedioate)], in series [1], the “% E (encapsulation efficiency)” value came to 99%. The pKa in series [2] was determined as 6.2. In series [3], the “Number mean (average particle size)” value worked out at 53 nm, the “PDI (polydispersity index)” value worked out at 0.03 and the “Z-avg (average particle size)” value is listed as 65 nm.

Regarding `CCCCCCCCC(CCCCCCCC)OC(=O)CCCCC(=O)OCC(COC(=O)CCCCC(=O)OC(CCCCCCCC)CCCCCCCC)COC(=O)NCCN(CC)CC` [Compound 68, O,O′-(2-((((2-(diethylamino)ethyl)carbamoyl)oxy)methyl)propane-1,3-diyl) di(heptadecan-9-yl) diadipate], the “% E (encapsulation efficiency)” value in series [1] is listed as 99%. Moreover, the pKa in series [2] stood at 6.4. Moreover, in series [3], the “Number mean (average particle size)” value came to 63 nm, the “PDI (polydispersity index)” value was 0.01 and the “Z-avg (average particle size)” value is given as 75 nm.
